Measurements as given in patent US12576084B2, “Methods for treating testicular and ovarian adrenal rest tumors” (Spruce Biosciences, Inc., priority 2018, dated 2026).

Legend:
[1] = system: ACTH, 17OHP and androstenedione (A4) in participants with classic CAH; experiment: Phase 2 open-label study in adults with classic CAH: change in ACTH, 17OHP and A4; assay type: in vivo, human
Protocol: (§1) An ongoing Phase 2 open-label study (Study Compound 2) is currently evaluating the safety and efficacy of Compound 1 dosed once daily for 6 weeks in adults with classic CAH. In the initial Cohort A of this study, all subjects are dosed starting at 200 mg/day for 14 days, escalating for each subject to 600 mg/day for 14 days, then 1000 mg/day for 14 days if the subject experiences no DLTs at the previous dose level. (FIGS. 2-3).
30% of subjects were in the normal range (*) after treatment with a CRF1 receptor antagonist.
50% of subjects were in the guideline range (*; 1200 ng/dL) after treatment with a CRF1 receptor antagonist.
50% of subjects were within the normal reference range after treatment with a CRF1 receptor antagonist.
(§2) The objectives of the study are: to assess the ability of Compound 1 to reduce excess ACTH and adrenal steroid production in participants with classic CAH on a stable gluococorticoid regimen; to evaluate the safety and tolerability of tildacerfont in participants with classic CAH; and to evaluate the pharmacokinetics (PK) of tildacerfont.
• Adult males and females 18 years or older • Diagnosis of classic CAH due to 21-hydroxylase deficiency • Morning 17OHP≥800 ng/dL, before taking any morning GC dose • On a stable regimen of gluococorticoid replacement for ≥30 days before enrollment Exclusion Criteria: • Clinically significant unstable medical condition, illness, or chronic disease within 30 days of screening • Clinically significant psychiatric disorder • History of bilateral adrenalectomy or hypopituitarism Study Design
FIG. 14 depicts the proof of concept and escalating QD dosing at 10 PM for Cohort A and the single dose level and BID dosing at 10 AM and 10 pm for Cohort B.
(§3) One participant withdrew early because of an occupation-related scheduling conflict. In Cohort B, 9 participants were enrolled and received at least one dose of Compound 1. […] Thus, baseline characteristics are calculated for n=8 in Cohort B. One participant in Cohort B was taking both HC and prednisone.

[2] = system: testicular adrenal rest tumors (TART); experiment: TART size pre-treatment vs 6 weeks post-treatment in a patient with classic CAH; assay type: in vivo, human; conditions: person with classic CAH, 6 weeks treatment
From the text: FIG. 10A-10B. Images of a patient with TART pre-treatment with a CRF1 antagonist (Compound 1) (A) and 6-weeks post-treatment with a CRF1 antagonist (Compound 1) (B).
FIGS. 10A-10B show approximately 25% shrinkage in TART in a person with classic congenital adrenal hyperplasia following 6 weeks treatment with a CRF1 receptor antagonist.

[3] = system: participants with classic CAH; experiment: Phase 2 study in classic CAH: safety and tolerability; assay type: in vivo, human; conditions: across both cohorts
Protocol: as §1, §2, §3

[4] = Phase 2 study in classic CAH: pharmacokinetics; assay type: in vivo, human; conditions: 200 to 1000 mg QD, patients with CAH
From the text: FIG. 2. Graphic representation of pharmacokinetics (dose-proportional, adequate exposure at safe doses) in patients with CAH following 14-days of once daily dosing at each dose level with a CRF1 antagonist (Compound 1).
FIG. 3. Graphic representation of pharmacokinetics (dose-proportional, adequate exposure at safe doses) in patients with CAH following 14-days of once daily dosing at each dose level with a CRF1 antagonist (Compound 1).
as §1, §2

[5] = Phase 1 studies in healthy volunteers: pharmacokinetics; assay type: in vivo
Protocol: The specification of study drug dosing at 10 pm and after consumption of a snack is based on information from the Phase 1 studies in healthy volunteers. The plasma Cmax (maximum concentration) for Compound 1 in the Phase 1 studies occurred approximately 5 hours after dosing. Therefore, Compound 1 will be dosed daily at 10 pm in this study in order to achieve peak plasma study drug concentration at the time of day when most adrenal androgens are produced. […] Specific dose reduction criteria, strict individual treatment stopping criteria, and appropriate laboratory and medical assessments have been established to ensure subject safety. (FIGS. 1A-1B).
To date, a total of 53 subjects, all healthy adults aged 21 to 65 years, have been treated with at least 1 dose of Compound 1 in 2 Phase 1 studies. The first-in-human study of Compound 1 (Study I3C-FW-BLAA) evaluated single ascending doses of 2 mg to 800 mg. […] A subsequent study (Study I3C-FW-BLAB) evaluated repeat doses of 50 mg, 100 mg, or 200 mg Compound 1 once daily for 14 consecutive days.

healthy volunteers = experiment: Phase 1 studies in healthy volunteers: safety and tolerability; assay type: in vivo
From the text: Clinical laboratory measures of testicular function (LH, FSH, inhibin B, and SHBG) will be assessed throughout this study to monitor the risk of testicular injury. Testicular ultrasounds and semen analysis will also be performed at screening/baseline and the end of the treatment period.
Clinical laboratory measures of liver chemistry will be assessed throughout this study, and strict individual treatment stopping criteria for liver chemistry findings are in place.

rats = experiment: Repeat-dose oral toxicology study, 91 days, rats; assay type: in vivo, rat
From the text: (§4) The nonclinical safety profile of Compound 1 has been evaluated in repeat-dose range-finding and definitive toxicology studies of up to 91 days in duration in rats and dogs using the clinically relevant route (oral) and schedule of administration (once daily).

beagle dogs = experiment: Repeat-dose oral toxicology study, 91 days, beagle dogs; assay type: in vivo, dog
From the text: as §4

male rats = experiment: Fertility toxicology study in male rats; assay type: in vivo, rat
Protocol: Additionally, a fertility toxicology study was conducted in rats. In this study, male rats were administered oral Compound 1 once daily at 0, 5, 20, or 1000 mg/kg for 85 to 87 days (70 days before mating, during mating, and ≤4 days between mating and necropsy). Male reproductive performance (mean day of mating, mating and fertility indices, and conception rates) was unaffected by Compound 1 treatment.

[6] = Nonclinical studies: liver function tests; assay type: in vivo; conditions: significantly higher doses
From the text: However, these events were not observed in the Phase 1 clinical studies. Clinical laboratory measures of liver chemistry will be assessed throughout this study, and strict individual treatment stopping criteria for liver chemistry findings are in place.

CRF1 receptor [7] = target: T1, CRF1 receptor (Homo sapiens, UniProt P34998); experiment: In vitro and ex vivo CRF1 receptor binding studies
T1 sequence (P34998 24-415): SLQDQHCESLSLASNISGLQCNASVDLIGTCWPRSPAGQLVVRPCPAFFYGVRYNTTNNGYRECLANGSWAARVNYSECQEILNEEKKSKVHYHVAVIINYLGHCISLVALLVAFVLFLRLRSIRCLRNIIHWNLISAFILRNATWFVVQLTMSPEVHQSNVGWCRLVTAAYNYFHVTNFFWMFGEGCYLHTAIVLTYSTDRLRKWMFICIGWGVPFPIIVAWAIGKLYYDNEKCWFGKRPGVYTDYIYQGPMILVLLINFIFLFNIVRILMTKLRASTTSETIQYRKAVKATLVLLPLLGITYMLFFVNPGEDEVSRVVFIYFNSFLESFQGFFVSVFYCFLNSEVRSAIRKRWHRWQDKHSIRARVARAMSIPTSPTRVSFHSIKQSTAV
Protocol: (§5) FIG. 11A-11B. Graphic representation of an […] binding assay of a CRF1 antagonist (Compound 1); ^125I-sauvagine binding to rat cerebellar membranes one hour after oral administration of increasing Compound 1 doses (A) and in vivo inhibition of CRF-induced activity after treatment with a CRF1 antagonist; Compound 1 (oral, 10 mg/kg) (B).

CRF1 receptor [8] = target: T1, CRF1 receptor; experiment: Inhibition of adenylate cyclase activity (CRF1 receptor-mediated downstream cascade); assay type: biochemical; conditions: in vitro
[9] = system: CRF-induced locomotor behavior; experiment: CRF-induced locomotor behavior after i.c.v. administration of CRF; assay type: in vivo; conditions: oral, 10 mg/kg
Protocol: as §5

[10] = CAH subjects, FIGS. 4 and 5A-5B
[11] = CAH subjects, FIGS. 6 and 7A-7B
[12] = CAH subjects, FIGS. 8 and 9A-9B
[13] = Cohort A (200, 600, 1000 mg QD)
[14] = healthy human subjects, Phase 1

Structure (SMILES): CCC(CC)c1cc(C)nc2c(-c3sc(N4CCOCC4)nc3Cl)c(C)nn12 [Compound 1, tildacerfont]
- subjects in the normal range for ACTH after treatment [1, 10]: 30 % of subjects
- subjects who demonstrated >25% reduction in ACTH [1, 10]: 70 % of subjects
- subjects who demonstrated reduction in ACTH [1, 10]: 80 % of subjects
- subjects in the guideline range (1200 ng/dL) for 17-OHP after treatment [1, 11]: 50 % of subjects
- subjects who demonstrated >25% reduction in ACTH (printed in the 17-OHP paragraph) [1, 11]: 50 % of subjects
- subjects who demonstrated reduction in 17-OHP [1, 11]: 80 % of subjects
- subjects who demonstrated >25% reduction in androstenedione [1, 12]: 60 % of subjects
- subjects within the normal reference range for androstenedione after treatment [1, 12]: 50 % of subjects
- subjects who demonstrated reduction in androstenedione ([1]; CAH subjects, at various doses, FIGS. 8 and 9A-9B): 100 % of subjects
- participants whose levels of 17OHP improved at ≥1 dose level [1, 13]: 8 out of 10
- participants whose levels of A4 improved at ≥1 dose level [1, 13]: 10 out of 10
- participants whose levels of ACTH improved at ≥1 dose level [1, 13]: 8 out of 10
- Percentage change from baseline in 17OHP ([1]; Cohort A, 200 mg QD (Week 2)): +22.2 (±172.3) %
- Percentage change from baseline in A4 ([1]; Cohort A, 200 mg QD (Week 2)): −12.1 (±47.4) %
- Percentage change from baseline in ACTH ([1]; Cohort A, 200 mg QD (Week 2)): −25.7 (±51.6) %
- Percentage change from baseline in 17OHP ([1]; Cohort A, 600 mg QD (Week 4)): −23.7 (±64.2) %
- Percentage change from baseline in A4 ([1]; Cohort A, 600 mg QD (Week 4)): −33.2 (±36.5) %
- Percentage change from baseline in ACTH ([1]; Cohort A, 600 mg QD (Week 4)): −60.1 (±37.5) %
- Percentage change from baseline in 17OHP ([1]; Cohort A, 1000 mg QD (Week 6)): −13.8 (±74.7) %
- Percentage change from baseline in A4 ([1]; Cohort A, 1000 mg QD (Week 6)): −28.6 (±44.6) %
- Percentage change from baseline in ACTH ([1]; Cohort A, 1000 mg QD (Week 6)): −32.7 (±47.0) %
- participants whose levels of 17OHP improved at ≥1 dose level ([1]; Cohort B (200 mg BID)): 6 out of 7
- participants whose levels of A4 improved at ≥1 dose level ([1]; Cohort B (200 mg BID)): 6 out of 8
- participants whose levels of ACTH improved at ≥1 dose level ([1]; Cohort B (200 mg BID)): 5 out of 7
- Percentage change from baseline in 17OHP ([1]; Cohort B, 200 mg BID (Weed 2)): −47.8 (±63.3) %
- Percentage change from baseline in A4 ([1]; Cohort B, 200 mg BID (Weed 2)): −16.0 (±81.4) %
- Percentage change from baseline in ACTH ([1]; Cohort B, 200 mg BID (Weed 2)): −36.5 (±58.0) %
- shrinkage in TART [2]: approximately 25%
- most common type of adverse event (AE) [3]: gastrointestinal disorders
- serious AEs and AEs leading to withdrawal [3]: no serious AEs and no AEs leading to withdrawal
- tolerability [3]: generally well tolerated
- PK profile [4]: predictable, dose-dependent PK profile
- study drug absorption in a fasted state [5]: minimal study drug absorption
- laboratory abnormalities in liver function tests (LFTs) (healthy volunteers; Phase 1 clinical studies): not observed
- alterations in safety laboratory values, vital signs, or electrocardiograms (ECGs) (healthy volunteers; Phase 1 studies): no clinically significant alterations
- adverse events, single ascending doses (healthy volunteers; Study I3C-FW-BLAA, 2 mg to 800 mg, small number of subjects): diarrhea and headache of mild or moderate severity
- adverse events, repeat doses (healthy volunteers; Study I3C-FW-BLAB, 50, 100 or 200 mg once daily for 14 days, small number of subjects): dyspnea, rhinorrhea, palpitations, and headache
- SAEs, AEs leading to discontinuation, dose-limiting toxicities (healthy volunteers; [14]): no SAEs, AEs leading to discontinuation, or dose-limiting toxicities (DLTs)
- tolerability (healthy volunteers; [14]): well tolerated
- effects on clinical laboratory markers of testicular function (LH and FSH) (healthy volunteers; healthy male volunteers, up to 200 mg per day for 14 consecutive days): no effects
- maximum tolerated dose (healthy volunteers; humans): has not been reached
- reversibility of findings (rats; 6-week treatment-free recovery period): reversible
- testicular effects (rats; high-dose 2,000 mg/kg/day): reversible testicular effects (degeneration/atrophy)
- toxicologic findings (rats; oral once daily, 91 days, up to 2000 mg/kg/day): all mild and limited to the male reproductive tract
- reversibility of findings (beagle dogs; beagle dogs, 6-week treatment-free recovery period): reversible
- toxicologic findings (beagle dogs; beagle dogs, oral once daily, 91 days, up to 2000 mg/kg/day): all mild and limited to the male reproductive tract
- effects on the thyroid gland (beagle dogs; dogs, 91 days, high-dose 2,000 mg/kg/day): effects on the thyroid gland were noted
- testicular effects (beagle dogs; dogs, high-dose 2,000 mg/kg/day): reversible testicular effects (degeneration/atrophy)
- male reproductive performance (mean day of mating, mating and fertility indices, conception rates) (male rats; male rats, oral once daily 5, 20 or 1000 mg/kg for 85 to 87 days): unaffected
- impairment in fertility (male rats; male reproductive studies in rodents, highest dose tested 1,000 mg/kg/day): no impairment in fertility
- ovarian and uterine effects in untreated females mated with treated males (male rats; rats): no ovarian and uterine effects
- laboratory abnormalities in liver function tests (LFTs) [6]: have been observed at significantly higher doses
- affinity and selectivity for the hCRF1 receptor (CRF1 receptor [7]): high affinity and selective for the hCRF1 receptor
- inhibition of adenylate cyclase activity (CRF1 receptor [8]): functional potency to inhibit adenylate cyclase activity
- inhibition of CRF-induced locomotor behavior [9]: significantly inhibit
